Measured values: patent US20220332720A1, “BICYCLIC AGONISTS OF STIMULATOR OF INTERFERON GENES STING” (The Scripps Research Institute, priority 2019, published 2022)

system: THP-1 Lucia ISG cells; assay: ISG-LUC activation assay (ISRE-luciferase assay); format: cell-based; conditions: Homo sapiens, THP1-Lucia ISG, 24 h, read-out: ISG-LUC activation assay score
Description: We have established a robust platform for identifying non-nucleotide small molecule STING agonists. his has been established using a primary assay involving a human THP-1 cell line carrying an IRF-inducible reporter with 5 copies of the IFN signaling response element. Counter screens, involving alternative reporter constructs, rodent cell-based assays, as well as cGAS and STING knock-out cell lines, are used to eliminate luciferase artifacts and ensure human-rodent cross species reactivity, as well as pathway selectivity. Biochemical assays, involving cGAS enzymatic activity and STING protein binding assays, are used to identify the specific target of identified hits.
Tissue culture. Wild-type (cat. no. thpl-isg) and STING KO (cat. no. thpd-kostg) THP-1-Lucia ISG cells were purchased from Invivogen and maintained in growth media consisting of RPMI 1640, 2mM L-glutamine, […], 10% heat-inactivated fetal bovine serum (FBS), 1,000 units/ml penicillin, 1,000 μg/ml streptomycin, 0.25 μg/ml Amphotericin B, and 100 μg/ml zeocin unless otherwise stated.
ISRE-luciferase assay. THP-1 Lucia ISG cells were resuspended in low-serum growth media (2% FBS) at a density of 5×10^5 cells/ml and treated with test article or vehicle (DMSO). 50 μL of cells were seeded into each well of a 384-well white greiner plates and incubated for 24 hours. To evaluate expression of the luciferase reporter, 30 μl of Quanti-luc (Invivogen) detection reagent was added to each well and luminescence was read using an Envision plate reader (Perkin Elmer) set with an integration time of 0.1 seconds.

| SMILES | EC50 [nM] |
| --- | --- |
| C#Cc1cc(NC(=O)c2cc(N)c3nnnn3n2)c(C(=O)O)cc1F [Compound 1, lithium 2-(8-aminotetrazolo[1,5-b]pyridazine-6-carboxamido)-4-ethynyl-5-fluorobenzoate] | < 3000 |

same assay, conditions: Homo sapiens, THP1-Lucia ISG; THP-1 Lucia ISG reporter cells, 24 hours; score based upon potency and efficacy relative to reference compound; read-out: ISG-LUC activation assay score

| SMILES | EC50 [nM] |
| --- | --- |
| COC(=O)c1cc(C#N)c(Cl)cc1NC(=O)c1cc2[nH]cnc2cn1 [Compound 68] | > 1000 |
| O=C(Nc1cc(F)c(F)cc1C(=O)O)c1cc2[nH]cnc2cn1 [Compound 78] | > 1000 |
| COc1cc(NC(=O)c2ccn3c(N)nnc3n2)c(C(=O)O)cc1F [Compound 58] | > 20000 |
| COC(=O)c1cc(Cl)c(Cl)cc1NC(=O)c1nc2n(n1)CCC(=O)N2 [Compound 91] | > 1000 |
| COC(=O)c1cc(Cl)c(Cl)cc1NC(=O)c1nc2nc(O)ccn2n1 [Compound 77] | > 1000 |
| C#Cc1cc(NC(=O)c2cc(N)c3[nH]c(C4CC4)nc3n2)c(C(=O)OC)cc1F [Compound 27] | > 20000 |
| Nc1cc(C(=O)Nc2cc(C3CC3)ccc2C(=O)O)nn2nnnc12 [Compound 31] | > 20000 |
| C#Cc1cc(NC(=O)c2cc(N)c3nnnn3n2)c(C(=O)O[C@@H]2CSSC[C@H]2O)cc1F [Compound 60] | > 1000 |
| C#Cc1cc(NC(=O)c2ccn3nc(-c4cn[nH]c4)nc3n2)c(C(=O)O)cc1F [Compound 51] | > 20000 |
| C#Cc1cc(NC(=O)c2cc(N)n3ncnc3n2)c(C(=O)O)cc1F [Compound 18] | > 1000 |
| C=C(F)c1cc(NC(=O)c2cc(N)c3nnnn3n2)c(C(=O)O)cc1F [Compound 26] | > 1000 |
| C#Cc1cc(NC(=O)c2ccn3c(-c4cn[nH]c4)cnc3n2)c(C(=O)O)cc1F [Compound 4, 2-(3-(1H-pyrazol-4-yl)imidazo[1,2-a]pyrimidine-7-carboxamido)-4-ethynyl-5-fluorobenzoic acid] | > 20000 |
| C#Cc1cc(NC(=O)c2cc(NC(=O)OC(C)(C)C)c3nnnn3n2)c(C(=O)OC)cc1F [Compound 70] | > 1000 |
| O=C(Nc1cc(F)c(F)cc1C(=O)O)c1ccc2nnnn2n1 [Compound 22] | > 1000 |
| O=C(O)c1cc(Cl)c(Cl)cc1NC(=O)c1cccn2cnnc12 [Compound 88] | > 20000 |
| COC(=O)c1cc(C#N)c(Cl)cc1NC(=O)c1cc2[nH]ncc2cn1 [Compound 90] | > 1000 |
| COc1cc(NC(=O)c2cc(N)c3nnnn3n2)c(C(=O)OC(C)C)cc1F [Compound 47] | > 1000 |
| C#Cc1ccc(C(=O)O)c(NC(=O)c2cc(N)c3nnnn3n2)c1 [Compound 24] | > 1000 |
| COC(=O)c1sc(C)cc1NC(=O)c1cc(N)c2nnnn2n1 [Compound 38] | > 1000 |
| COc1cc(NC(=O)c2cc(N)c3nnnn3n2)c(C(=O)O)cc1Cl [Compound 84] | > 1000 |
| COC(=O)c1nc(Cl)c(Cl)cc1NC(=O)c1cnc2nc[nH]c2c1 [Compound 25] | > 20000 |
| COC(=O)c1cc(F)c(F)cc1NC(=O)c1ccc2nnnn2n1 [Compound 71] | > 1000 |

| SMILES | EC50 [nM] |
| --- | --- |
| N#Cc1cc(NC(=O)c2cc(N)c3nnnn3n2)c(C(=O)O)cc1F [Compound 41] | > 1000 |
| C#Cc1cc(NC(=O)c2cc(N)nn3nnnc23)c(C(=O)O)cc1F [Compound 50] | > 1000 |
| COC(=O)c1cc(F)c(OC)cc1NC(=O)c1ccn2c(N)nnc2n1 [Compound 57] | > 20000 |
| COC(=O)c1cc(F)c(F)cc1NC(=O)c1nc2cnccn2n1 [Compound 80] | > 1000 |
| COc1cc(NC(=O)c2nc3ccc(C(N)=O)nc3[nH]2)c(C(=O)O)cc1F [Compound 87] | > 20000 |
| C=C(F)c1ccc(C(=O)O)c(NC(=O)c2cc(N)c3cnnn3n2)c1 [Compound 33] | > 1000 |
| C#Cc1cc(NC(=O)c2ccn3c([S+](C)[O-])nnc3n2)c(C(=O)O)cc1F (stereo not drawn) [Compound 63] | > 20000 |
| C#Cc1cc(NC(=O)c2ccn3c(-c4ccncc4)nnc3n2)c(C(=O)O)cc1F [Compound 59] | > 20000 |
| C=Cc1cc(NC(=O)c2cc(N)c3nnnn3n2)c(C(=O)O)cc1F [Compound 5] | > 1000 |
| C#Cc1cc(NC(=O)c2cc(N)n3c(C#N)cnc3n2)c(C(=O)O)cc1F [Compound 46] | > 20000 |
| COC(=O)c1cc(F)c(F)cc1NC(=O)c1cccn2cnnc12 [Compound 15] | > 1000 |
| C#Cc1cc(NC(=O)c2cc(N)c3nnnn3n2)c(C(=O)O)nc1Cl [Compound 11] | > 1000 |
| COC(=O)c1cc(F)c(F)cc1NC(=O)c1ccc2nccn2n1 [Compound 21] | > 20000 |
| C#Cc1cc(NC(=O)c2ccn3nc(N)nc3n2)c(C(=O)O)cc1F [Compound 37] | > 20000 |
| COC(=O)c1cc(F)c(F)cc1NC(=O)c1cc2ncccn2n1 [Compound 85] | > 20000 |
| C#Cc1cc(NC(=O)c2ccn3c(S(C)(=O)=O)nnc3n2)c(C(=O)O)cc1F [Compound 62] | > 20000 |
| COc1cc(NC(=O)c2cc(NC(=O)OC(C)(C)C)c3nnnn3n2)c(C(=O)O)cc1F [Compound 86] | > 1000 |
| C#Cc1ccc(NC(=O)c2cc(N)c3nnnn3n2)c(C(=O)O)c1 [Compound 28] | > 20000 |
| C#Cc1cc(NC(=O)c2cc(N)c3ncnn3n2)c(C(=O)O)cc1F [Compound 8] | > 1000 |
| COc1ccc(C(=O)O)c(NC(=O)c2cc(N)c3nnnn3n2)c1 [Compound 81] | > 1000 |
| COc1cc(NC(=O)c2ccc3c(ncn3C)n2)c(C(=O)O)cc1F [Compound 55] | > 20000 |

Other lines, results leading:

| EC50 [nM] | SMILES |
| --- | --- |
| > 1000 | COC(=O)c1cc(F)c(F)cc1NC(=O)N1CCn2cncc2C1 [Compound 76] |
| > 1000 | COC(=O)c1cc(F)c(OC)cc1NC(=O)c1cc(NC(=O)OC(C)(C)C)c2nnnn2n1 [Compound 79] |
| > 1000 | C=Cc1ccc(C(=O)O)c(NC(=O)c2cc(N)c3nnnn3n2)c1 [Compound 16] |
| < 900 | COC(=O)c1cc(F)c(OC)cc1NC(=O)c1cc(N)c2nnnn2n1 [Compound 67] |
| < 900 | C=Cc1ccc(C(=O)OC)c(NC(=O)c2cc(N)c3nnnn3n2)c1 [Compound 64] |
| > 1000 | COC(=O)c1cc(F)c(OC)cc1NC(=O)c1ccc2c(ncn2C)n1 [Compound 56] |
| > 1000 | Nc1cc(C(=O)Nc2cc(Cl)c(Cl)cc2C(=O)O)nn2nncc12 [Compound 17] |
| > 1000 | Nc1cc(C(=O)Nc2cc(Cl)c(Cl)cc2C(=O)O)nn2nnnc12 [Compound 82] |
| > 1000 | C#Cc1cc(NC(=O)c2ccc3c(C#N)nnn3n2)c(C(=O)O)cc1F [Compound 13] |
| < 900 | C#Cc1cc(NC(=O)c2cc(N)c3nnnn3n2)c(C(=O)OC)cc1Cl [Compound 34] |
| < 900 | C#Cc1cc(NC(=O)c2cc(N)nn3nnnc23)c(C(=O)OC)cc1F [Compound 19] |
| < 900 | COC(=O)c1cc(F)c(OC)cc1NC(=O)c1ccc2cnnn2n1 [Compound 10] |
| < 900 | COC(=O)c1cc(F)c(C)cc1NC(=O)c1cc(N)c2nnnn2n1 [Compound 40] |
| < 900 | C#Cc1cc(NC(=O)c2ccc3nnnn3n2)c(C(=O)OC)cc1F [Compound 42] |
| < 900 | C=C(F)c1ccc(C(=O)O)c(NC(=O)c2cc(N)c3nnnn3n2)c1 [Compound 66] |
| < 900 | C=C(F)c1ccc(C(=O)OC)c(NC(=O)c2cc(N)n3ncnc3n2)c1 [Compound 30] |

| EC50 [nM] | SMILES |
| --- | --- |
| < 900 | COC(=O)c1cc(Cl)c(Cl)cc1NC(=O)c1ccn2c(C#N)cnc2n1 [Compound 3, methyl 4,5-dichloro-2-(3-cyanoimidazo[1,2-a]pyrimidine-7-carboxamido)benzoate] |
| < 900 | Nc1cc(C(=O)Nc2cc(Cl)c(F)cc2C(=O)O)nn2nnnc12 [Compound 83] |
| < 3000 | COc1cc(NC(=O)c2ccc3cnnn3n2)c(C(=O)O)cc1F [Compound 6] |
| < 900 | C#Cc1cc2nc(-c3ccc4nnnn4n3)oc(=O)c2cc1F [Compound 44] |
| < 900 | C/C=C/c1cc(NC(=O)c2cc(N)c3nnnn3n2)c(C(=O)OC)cc1F [Compound 35] |
| < 900 | COc1cc2nc(-c3ccc4nnnn4n3)oc(=O)c2cc1F [Compound 48] |
| < 900 | C#Cc1cc2nc(-c3cc(N)c4nnnn4n3)oc(=O)c2cc1F [Compound 2, 2(8-aminotetrazolo[1,5-b]pyridazin-6-yl)-7-ethynyl-6-fluoro-4H-benzo[d][1,3]oxazin-4-one] |
| < 3000 | C#Cc1cc(NC(=O)c2cc(N)c3nnnn3n2)c(C(=O)O)cc1Cl [Compound 14] |
| < 3000 | C#Cc1cc(NC(=O)c2ccc3nnnn3n2)c(C(=O)O)cc1F [Compound 9] |
| < 900 | COc1cc2nc(-c3cc(N)c4nnnn4n3)oc(=O)c2cc1F [Compound 49] |
| < 900 | COc1cc(NC(=O)c2cc(N)c3nnnn3n2)c(C(=O)OC(C)OC(C)=O)cc1F (stereo not drawn) [Compound 54] |
| < 3000 | C#Cc1cc(NC(=O)c2ccc3c(C(N)=O)nnn3n2)c(C(=O)O)cc1F [Compound 12] |
| < 900 | COC(=O)c1cc(Cl)c(Cl)cc1NC(=O)c1nn2nnnc2cc1N [Compound 65] |
| < 3000 | C#Cc1cc(NC(=O)c2cc(N)c3nnnn3n2)c(C(=O)O)cc1C#N [Compound 36] |
| < 3000 | COc1cc(NC(=O)c2ccc3nnnn3n2)c(C(=O)O)cc1F [Compound 7] |
